Data from ChEMBL document CHEMBL1201861, “Genomics of Drug Sensitity in Cancer screening data, Wellcome Trust Sanger Institute”.

Assays:
Format in all cases: functional, cell-based
NCI-H650 = experiment: cells; settings: Homo sapiens;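 note: growth inhibition of NCI-H650 cells, read out by a viability assay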
Description: SANGER: Inhibition of human NCI-H650 cell growth in a cell viability assay.

BFTC-909 = experiment: cells; settings: Homo sapiens
Description: SANGER: Inhibition of human BFTC-909 cell growth in a cell viability assay.

RL = experiment: cells; settings: Homo sapiens
Description: SANGER: Inhibition of human RL cell growth in a cell viability assay.

NCI-H810 = experiment: cells; settings: Homo sapiens;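 note: IC50 reflects inhibition of cancer cell line growth, read out with a cell viability assay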
Description: SANGER: Inhibition of human NCI-H810 cell growth in a cell viability assay.

RMG-I = experiment: cells; settings: Homo sapiens;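 note: growth inhibition of human RMG-I cells, read out with a cell viability assay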
Description: SANGER: Inhibition of human RMG-I cell growth in a cell viability assay.

KOSC-2 = experiment: cells; settings: Homo sapiens;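 note: growth inhibition of KOSC-2 cells, read out by a cell viability assay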
Description: SANGER: Inhibition of human KOSC-2 cell growth in a cell viability assay.

A204 = experiment: cells; settings: Homo sapiens;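 note: growth inhibition of human A204 cells, read out with a cell viability assay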
Description: SANGER: Inhibition of human A204 cell growth in a cell viability assay.

Kasumi 1 = experiment: cells; settings: Homo sapiens;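 note: growth inhibition of human Kasumi-1 cells, read out by a cell viability assay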
Description: SANGER: Inhibition of human KASUMI-1 cell growth in a cell viability assay.

MDA-MB-361 = experiment: cells; settings: Homo sapiens
OAW-28 = experiment: cells; settings: Homo sapiens;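 note: growth inhibition of OAW-28 cells, read out with a cell viability assay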
Description: SANGER: Inhibition of human OAW-28 cell growth in a cell viability assay.

CAL-51 = experiment: cells; settings: Homo sapiens;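 note: human CAL-51 cell line, growth inhibition read out via a cell viability assay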
Description: SANGER: Inhibition of human CAL-51 cell growth in a cell viability assay.

NCI-H2405 = experiment: cells; settings: Homo sapiens;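 note: growth inhibition of the human cell line, read out with a cell viability assay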
Description: SANGER: Inhibition of human NCI-H2405 cell growth in a cell viability assay.

MHH-CALL-2 = experiment: cells; settings: Homo sapiens;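 note: growth inhibition of the cell line, read out in a cell viability assay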
Description: SANGER: Inhibition of human MHH-CALL-2 cell growth in a cell viability assay.

HuP-T3 = experiment: cells; settings: Homo sapiens;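 note: HuP-T3 cell growth inhibition, read out with a cell viability assay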
Description: SANGER: Inhibition of human HuP-T3 cell growth in a cell viability assay.

RVH-421 = experiment: cells; settings: Homo sapiens
Description: SANGER: Inhibition of human RVH-421 cell growth in a cell viability assay.

MC-CAR = experiment: cells; settings: Homo sapiens;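 note: growth inhibition of the human MC-CAR cell line, read out by a cell viability assay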
Description: SANGER: Inhibition of human MC-CAR cell growth in a cell viability assay.

HCC1954 = experiment: cells; settings: Homo sapiens;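 note: growth inhibition of human HCC1954 cells, read out with a cell viability assay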
Description: SANGER: Inhibition of human HCC1954 cell growth in a cell viability assay.

NCI-H1436 = experiment: cells; settings: Homo sapiens;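 note: growth suppression of human NCI-H1436 cells, determined with a cell viability readout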
Description: SANGER: Inhibition of human NCI-H1436 cell growth in a cell viability assay.

CMK = experiment: cells; settings: Homo sapiens;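 note: growth inhibition of CMK cells, read out as cell viability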
Description: SANGER: Inhibition of human CMK cell growth in a cell viability assay.

P12-Ichikawa = experiment: cells; settings: Homo sapiens
MIA PaCa-2 = experiment: cells; settings: Homo sapiens;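 note: growth inhibition of MIA PaCa-2 cells, read out with a cell viability assay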
Description: SANGER: Inhibition of human MIA-PaCa-2 cell growth in a cell viability assay.

HCC2157 = experiment: cells; settings: Homo sapiens;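 note: growth inhibition of the cancer cell line, read out as cell viability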
Description: SANGER: Inhibition of human HCC2157 cell growth in a cell viability assay.

HCC70 = experiment: cells; settings: Homo sapiens;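 note: cell viability assay measuring how strongly the compound suppresses proliferation of HCC70 cells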
Description: SANGER: Inhibition of human HCC70 cell growth in a cell viability assay.

D-392MG = experiment: cells; settings: Homo sapiens
CA46 = experiment: cells; settings: Homo sapiens;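 note: growth inhibition of human CA46 cells, read out by a cell viability assay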
Description: SANGER: Inhibition of human CA46 cell growth in a cell viability assay.

SN12C = experiment: cells; settings: Homo sapiens;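 note: growth inhibition of human SN12C cells, measured by a cell viability assay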
Description: SANGER: Inhibition of human SN12C cell growth in a cell viability assay.

EFO-27 = experiment: cells; settings: Homo sapiens;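 note: growth inhibition of EFO-27 cells, read out with a cell viability assay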
Description: SANGER: Inhibition of human EFO-27 cell growth in a cell viability assay.

SW1573 = experiment: cells; settings: Homo sapiens;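 note: growth inhibition of SW1573 cells, read out with a cell viability assay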
Description: SANGER: Inhibition of human SW1573 cell growth in a cell viability assay.

NCI-H661 = experiment: cells; settings: Homo sapiens;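 note: cell viability assay read-out, IC50 being the concentration that inhibits growth of the cells by half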
Description: SANGER: Inhibition of human NCI-H661 cell growth in a cell viability assay.

LC4-1 = experiment: cells; settings: Homo sapiens;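 note: growth inhibition of LC4-1 cells, read out with a cell viability assay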
Description: SANGER: Inhibition of human LC4-1 cell growth in a cell viability assay.

NCI-N87 = experiment: cells; settings: Homo sapiens;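 note: growth inhibition of human NCI-N87 cells, read out with a cell viability assay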
Description: SANGER: Inhibition of human NCI-N87 cell growth in a cell viability assay.

G-401 = experiment: cells; settings: Homo sapiens
Description: SANGER: Inhibition of human G-401 cell growth in a cell viability assay.

IMR-5 = experiment: cells; settings: Homo sapiens;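 note: growth inhibition of human IMR-5 cells, read out with a cell viability assay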
Description: SANGER: Inhibition of human IMR-5 cell growth in a cell viability assay.

NCI-H2087 = experiment: cells; settings: Homo sapiens;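 note: growth inhibition determined with a cell viability readout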
Description: SANGER: Inhibition of human NCI-H2087 cell growth in a cell viability assay.

SIMA = experiment: cells; settings: Homo sapiens;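 note: growth inhibition of SIMA cells, measured with a cell viability readout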
Description: SANGER: Inhibition of human SIMA cell growth in a cell viability assay.

SCC-25 = experiment: cells; settings: Homo sapiens;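 note: growth inhibition of SCC-25 cells, measured with a cell viability assay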
Description: SANGER: Inhibition of human SCC-25 cell growth in a cell viability assay.

MDA-MB-134-VI = experiment: cells; settings: Homo sapiens
Description: SANGER: Inhibition of human MDA-MB-134-VI cell growth in a cell viability assay.

SU-DHL-1 = experiment: SANGER: Inhibition of human SU-DHL-1 cell growth in a cell viability assay.
OAW-42 = experiment: cells; settings: Homo sapiens;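 note: growth inhibition of OAW-42 cells, read out with a cell viability assay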
Description: SANGER: Inhibition of human OAW-42 cell growth in a cell viability assay.

WM-115 = experiment: cells; settings: Homo sapiens
Description: SANGER: Inhibition of human WM-115 cell growth in a cell viability assay.

COLO-679 = experiment: cells; settings: Homo sapiens
Description: SANGER: Inhibition of human COLO-679 cell growth in a cell viability assay.

NCI-H630 = experiment: cells; settings: Homo sapiens;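 note: growth inhibition of NCI-H630 cells, read out with a cell viability assay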
Description: SANGER: Inhibition of human NCI-H630 cell growth in a cell viability assay.

KARPAS-422 = experiment: cells; settings: Homo sapiens
Description: SANGER: Inhibition of human KARPAS-422 cell growth in a cell viability assay.

NCI-H28 = experiment: cells; settings: Homo sapiens;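 note: growth inhibition of human NCI-H28 cells, read out as cell viability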
Description: SANGER: Inhibition of human NCI-H28 cell growth in a cell viability assay.

TE-15 = experiment: cells; settings: Homo sapiens;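 note: cell viability readout of growth inhibition in TE-15 cells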
Description: SANGER: Inhibition of human TE-15 cell growth in a cell viability assay.

UACC-62 = experiment: cells; settings: Homo sapiens;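 note: growth inhibition of human UACC-62 cells, read out by a cell viability assay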
Description: SANGER: Inhibition of human UACC-62 cell growth in a cell viability assay.

A2058 = experiment: cells; settings: Homo sapiens;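 note: reduction of A2058 cell growth, read out with a viability assay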
Description: SANGER: Inhibition of human A2058 cell growth in a cell viability assay.

CAL-85-1 = experiment: cells; settings: Homo sapiens;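 note: growth inhibition of human CAL-85-1 cells, read out with a cell viability assay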
Description: SANGER: Inhibition of human CAL-85-1 cell growth in a cell viability assay.

HSC-4 = experiment: cells; settings: Homo sapiens;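 note: growth inhibition of human HSC-4 cells, read out with a cell viability assay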
Description: SANGER: Inhibition of human HSC-4 cell growth in a cell viability assay.

S-117 = experiment: cells; settings: Homo sapiens
Description: SANGER: Inhibition of human S-117 cell growth in a cell viability assay.

T98G = experiment: cells; settings: Homo sapiens;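 note: growth inhibition of T98G cells, read out by a cell viability assay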
Description: SANGER: Inhibition of human T98G cell growth in a cell viability assay.

CAL-62 = experiment: cells; settings: Homo sapiens;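 note: growth inhibition of CAL-62 cells, read out with a cell viability assay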
Description: SANGER: Inhibition of human CAL-62 cell growth in a cell viability assay.

AGS = experiment: cells; settings: Homo sapiens;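 note: growth inhibition of AGS cells, determined with a cell viability assay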
Description: SANGER: Inhibition of human AGS cell growth in a cell viability assay.

DK-MG = experiment: cells; settings: Homo sapiens;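 note: growth inhibition of DK-MG cells, read out with a cell viability assay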
Description: SANGER: Inhibition of human DK-MG cell growth in a cell viability assay.

AU565 = experiment: cells; settings: Homo sapiens;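 note: cell viability assay measuring growth inhibition of human AU565 cells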
Description: SANGER: Inhibition of human AU565 cell growth in a cell viability assay.

NCI-H1882 = experiment: cells; settings: Homo sapiens;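 note: growth inhibition of the cell line, determined with a viability assay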
Description: SANGER: Inhibition of human NCI-H1882 cell growth in a cell viability assay.

KP-4 = experiment: cells; settings: Homo sapiens;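 note: human KP-4 cells, with growth inhibition read out through a cell viability assay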
Description: SANGER: Inhibition of human KP-4 cell growth in a cell viability assay.

SK-MES-1 = experiment: cells; settings: Homo sapiens;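 note: growth inhibition of human SK-MES-1 cells, read out with a cell viability assay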
Description: SANGER: Inhibition of human SK-MES-1 cell growth in a cell viability assay.

CAMA-1 = experiment: cells; settings: Homo sapiens;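 note: growth inhibition of CAMA-1 cells, read out with a cell viability assay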
Description: SANGER: Inhibition of human CAMA-1 cell growth in a cell viability assay.

HMV-2 cell line = experiment: cells; settings: Homo sapiens;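 note: growth inhibition of HMV-II cells, read out with a cell viability assay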
Description: SANGER: Inhibition of human HMV-II cell growth in a cell viability assay.

RPMI-7951 = experiment: cells; settings: Homo sapiens
Description: SANGER: Inhibition of human RPMI-7951 cell growth in a cell viability assay.

PANC-03-27 = experiment: cells; settings: Homo sapiens
Description: SANGER: Inhibition of human PANC-03-27 cell growth in a cell viability assay.

SW13 = experiment: cells; settings: Homo sapiens;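 note: IC50 is inhibition of SW13 cell growth, read out with a cell viability assay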
Description: SANGER: Inhibition of human SW13 cell growth in a cell viability assay.

SKG-IIIa = experiment: cells; settings: Homo sapiens;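 note: cell growth inhibition, read out with a cell viability assay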
Description: SANGER: Inhibition of human SKG-IIIa cell growth in a cell viability assay.

Structure (SMILES): CC(C)=CC[C@@H](O)C1=CC(=O)c2c(O)ccc(O)c2C1=O [SHIKONIN]
- IC50 (NCI-H650): 0.665 µM
- IC50 (BFTC-909): 3.63 µM
- IC50 (RL): > 16 µM
- IC50 (NCI-H810): 0.503 µM
- IC50 (RMG-I): 0.864 µM
- IC50 (KOSC-2): 1.49 µM
- IC50 (A204): 0.127 µM
- IC50 (Kasumi 1): 0.124 µM
- IC50 (MDA-MB-361): 1.73 µM
- IC50 (OAW-28): 1.2 µM
- IC50 (CAL-51): 0.0209 µM
- IC50 (NCI-H2405): 0.675 µM
- IC50 (MHH-CALL-2): 0.715 µM
- IC50 (HuP-T3): 0.834 µM
- IC50 (RVH-421): 1.47 µM
- IC50 (MC-CAR): 0.814 µM
- IC50 (HCC1954): 0.902 µM
- IC50 (NCI-H1436): 0.604 µM
- IC50 (CMK): 0.352 µM
- IC50 (P12-Ichikawa): 1.39 µM
- IC50 (MIA PaCa-2): 0.276 µM
- IC50 (HCC2157): 0.338 µM
- IC50 (HCC70): 2.01 µM
- IC50 (D-392MG): 0.915 µM
- IC50 (CA46): 0.192 µM
- IC50 (SN12C): 1.76 µM
- IC50 (EFO-27): 0.33 µM
- IC50 (SW1573): 0.372 µM
- IC50 (NCI-H661): 5.43 µM
- IC50 (LC4-1): 0.36 µM
- IC50 (NCI-N87): 2.94 µM
- IC50 (G-401): 0.235 µM
- IC50 (IMR-5): 0.589 µM
- IC50 (NCI-H2087): 0.441 µM
- IC50 (SIMA): 2.32 µM
- IC50 (SCC-25): 0.383 µM
- IC50 (MDA-MB-134-VI): 0.709 µM
- IC50 (SU-DHL-1): 0.499 µM
- IC50 (OAW-42): 0.578 µM
- IC50 (WM-115): 10.6 µM
- IC50 (COLO-679): 0.184 µM
- IC50 (NCI-H630): 1.3 µM
- IC50 (KARPAS-422): > 16 µM
- IC50 (NCI-H28): 1.01 µM
- IC50 (TE-15): 0.4 µM
- IC50 (UACC-62): 1.23 µM
- IC50 (A2058): 0.919 µM
- IC50 (CAL-85-1): 0.161 µM
- IC50 (HSC-4): 2.12 µM
- IC50 (S-117): 0.387 µM
- IC50 (T98G): 1.08 µM
- IC50 (CAL-62): 1.28 µM
- IC50 (AGS): 0.613 µM
- IC50 (DK-MG): 9.82 µM
- IC50 (AU565): 1.24 µM
- IC50 (NCI-H1882): 0.576 µM
- IC50 (KP-4): 0.501 µM
- IC50 (SK-MES-1): 6.29 µM
- IC50 (CAMA-1): 1.52 µM
- IC50 (HMV-2 cell line): 0.0564 µM
- IC50 (RPMI-7951): 0.156 µM
- IC50 (PANC-03-27): 0.167 µM
- IC50 (SW13): 1.41 µM
- IC50 (SKG-IIIa): 4.39 µM

Structure (SMILES): O=c1[nH]c2ccccc2n1C1CCN(Cc2ccc(-c3nc4cc5[nH]cnc5cc4nc3-c3ccccc3)cc2)CC1
- IC50 (NCI-H650): > 2.56 µM
- IC50 (BFTC-909): > 2.56 µM
- IC50 (RL): > 2.56 µM
- IC50 (NCI-H810): > 2.56 µM
- IC50 (RMG-I): > 2.56 µM
- IC50 (KOSC-2): > 2.56 µM
- IC50 (A204): > 2.56 µM
- IC50 (Kasumi 1): 1.41 µM
- IC50 (MDA-MB-361): 0.49 µM
- IC50 (OAW-28): > 2.56 µM
- IC50 (CAL-51): > 2.56 µM
- IC50 (NCI-H2405): > 2.56 µM
- IC50 (MHH-CALL-2): > 2.56 µM
- IC50 (HuP-T3): > 2.56 µM
- IC50 (RVH-421): > 2.56 µM
- IC50 (MC-CAR): > 2.56 µM
- IC50 (HCC1954): > 2.56 µM
- IC50 (NCI-H1436): > 2.56 µM
- IC50 (CMK): > 2.56 µM
- IC50 (P12-Ichikawa): > 2.56 µM
- IC50 (MIA PaCa-2): > 2.56 µM
- IC50 (HCC2157): > 2.56 µM
- IC50 (HCC70): 0.751 µM
- IC50 (D-392MG): > 2.56 µM
- IC50 (CA46): > 2.56 µM
- IC50 (SN12C): > 2.56 µM
- IC50 (EFO-27): > 2.56 µM
- IC50 (SW1573): > 2.56 µM
- IC50 (NCI-H661): > 2.56 µM
- IC50 (LC4-1): > 2.56 µM
- IC50 (NCI-N87): > 2.56 µM
- IC50 (G-401): > 2.56 µM
- IC50 (IMR-5): > 2.56 µM
- IC50 (NCI-H2087): > 2.56 µM
- IC50 (SIMA): > 2.56 µM
- IC50 (SCC-25): > 2.56 µM
- IC50 (MDA-MB-134-VI): > 2.56 µM
- IC50 (SU-DHL-1): > 2.56 µM
- IC50 (OAW-42): > 2.56 µM
- IC50 (WM-115): > 2.56 µM
- IC50 (COLO-679): > 2.56 µM
- IC50 (NCI-H630): > 2.56 µM
- IC50 (KARPAS-422): > 2.56 µM
- IC50 (NCI-H28): > 2.56 µM
- IC50 (TE-15): > 2.56 µM
- IC50 (UACC-62): > 2.56 µM
- IC50 (A2058): > 2.56 µM
- IC50 (CAL-85-1): > 2.56 µM
- IC50 (HSC-4): > 2.56 µM
- IC50 (S-117): > 2.56 µM
- IC50 (T98G): > 2.56 µM
- IC50 (CAL-62): > 2.56 µM
- IC50 (AGS): > 2.56 µM
- IC50 (DK-MG): > 2.56 µM
- IC50 (AU565): 1.24 µM
- IC50 (NCI-H1882): > 2.56 µM
- IC50 (KP-4): > 2.56 µM
- IC50 (SK-MES-1): 2.1 µM
- IC50 (CAMA-1): > 2.56 µM
- IC50 (HMV-2 cell line): > 2.56 µM
- IC50 (RPMI-7951): > 2.56 µM
- IC50 (PANC-03-27): > 2.56 µM
- IC50 (SW13): > 2.56 µM
- IC50 (SKG-IIIa): > 2.56 µM
